Reference: the supplement of paper PMC10331698
± gives the standard deviation of the averaged measurements.

Experiments:
Test in all cases: level (log10 ratio to DMSO vehicle control); higher = higher biomarker level / cell amount than vehicle control
Details in all cases: in DMSO
Perfluoropropanoic acid = compound: O=C(O)C(F)(F)C(F)(F)F [Perfluoropropanoic acid]
Method: (§1)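 BioMAP Diversity Plus panel of 12 human primary cell co-culture systems (3C, 4H, LPS, SAg, BT, BF4T, BE3C, CASM3C, HDF3CGF, KF3CT, MyoF, Mphg). Compounds were added 1 h before stimulation and left for 24 h (MyoF 48 h; BT 72 h for soluble read-outs or 6 d for IgG). Biomarkers were read by ELISA, cytotoxicity by SRB, PBMC viability and proliferation by Alamar Blue. Each well value was divided by the mean of 8 DMSO control wells on the same plate and log10 transformed; duplicate blinded samples were tested at 4 concentrations.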

[1] = compound: NCC(F)(F)C(F)(F)C(F)(F)C(F)(F)C(F)(F)C(F)(F)C(F)(F)F [1H,1H-Perfluorooctylamine]
Method: as §1

[2] = compound: FC(F)(F)C(F)(C(F)(F)F)C(F)(F)C(F)(F)CC1CO1 [3-(Perfluoro-3-methylbutyl)-1,2-propenoxide]
Method: as §1

Perfluorodecanoic acid = compound: O=C(O)C(F)(F)C(F)(F)C(F)(F)C(F)(F)C(F)(F)C(F)(F)C(F)(F)C(F)(F)C(F)(F)F [Perfluorodecanoic acid]
Method: as §1

[3] = compound: O=C(O)C(F)(F)C(F)(F)C(F)(F)OC(F)(C(F)(F)F)C(F)(F)F [Perfluoro-4-isopropoxybutanoic acid]
Method: as §1

Perfluoro-1-iodohexane = compound: FC(F)(F)C(F)(F)C(F)(F)C(F)(F)C(F)(F)C(F)(F)I [Perfluoro-1-iodohexane]
Method: as §1

[4] = compound: COC(=O)CCC(F)(F)C(F)(F)C(F)(F)C(F)(F)F [Methyl 2H,2H,3H,3H-perfluoroheptanoate]
Method: as §1

Test System | level (log10) (Perfluoropropanoic acid; 6700 nM) | level (log10) (Perfluoropropanoic acid; 20000 nM) | level (log10) (Perfluoropropanoic acid; 60000 nM) | level (log10) ([1]; 6700 nM) | level (log10) ([1]; 20000 nM) | level (log10) ([1]; 60000 nM) | level (log10) ([2]; 6700 nM) | level (log10) ([2]; 20000 nM) | level (log10) (Perfluorodecanoic acid; 6700 nM) | level (log10) (Perfluorodecanoic acid; 20000 nM) | level (log10) ([3]; 6700 nM) | level (log10) ([3]; 20000 nM) | level (log10) ([3]; 60000 nM) | level (log10) (Perfluoro-1-iodohexane; 6700 nM) | level (log10) (Perfluoro-1-iodohexane; 20000 nM) | level (log10) (Perfluoro-1-iodohexane; 60000 nM) | level (log10) ([4]; 6700 nM) | level (log10) ([4]; 20000 nM) | level (log10) ([4]; 60000 nM)
BF4T:MMP-1 | 0.003 ± 0.0071 | 0.0035 ± 0.029 | 0.009 ± 0.033 | 0.0115 ± 0.0092 | 0.0025 ± 0.005 | 0.011 ± 0.0085 | -0.0115 ± 0.047 | 0.02 ± 0.067 | -0.0015 ± 0.0035 | -0.201 ± 0.011 | -0.0035 ± 0.022 | 0.0155 ± 0.026 | 0.027 ± 0.03 | 0.0045 ± 0.005 | 0.0035 ± 0.0035 | 0.009 ± 0.011 | 0.0015 ± 0.013 | -0.007 ± 0.0028 | 0.014 ± 0.021
BF4T:MMP-3 | -0.018 ± 0.0028 | 0.0015 ± 0.026 | 0.0085 ± 0.028 | -0.0075 ± 0.042 | -0.0185 ± 0.044 | 0.0095 ± 0.0078 | 0.0005 ± 0.018 | -0.011 ± 0.0028 | 0.0215 ± 0.023 | -0.14 ± 0.075 | -0.0095 ± 0.013 | -0.0015 ± 0.029 | 0.042 ± 0.1 | 0.004 ± 0.0057 | 0.017 | 0.0635 ± 0.035 | -0.0135 ± 0.015 | -0.021 ± 0.03 | -0.0185 ± 0.0035
BF4T:MMP-9 | -0.0065 ± 0.036 | -0.0065 ± 0.037 | 0.0035 ± 0.032 | 0.0005 ± 0.0064 | -0.0105 ± 0.015 | 0.002 ± 0.0028 | 0.0085 ± 0.005 | -0.0125 ± 0.026 | -0.025 ± 0.0057 | -0.282 ± 0.023 | 0.012 ± 0.0057 | 0.0275 ± 0.0064 | 0.058 ± 0.034 | -0.0005 ± 0.015 | -0.011 ± 0.0042 | -0.021 ± 0.034 | 0.007 ± 0.034 | 0.0165 ± 0.047 | 0.012 ± 0.055
BF4T:PAI-I | -0.004 ± 0.023 | 0.01 ± 0.013 | 0.029 ± 0.044 | -0.004 ± 0.02 | -0.008 ± 0.016 | 0.0115 ± 0.005 | -0.0045 ± 0.013 | 0.0005 ± 0.016 | 0.0185 ± 0.00071 | -0.119 ± 0.043 | 0.004 ± 0.0057 | 0.0125 ± 0.0035 | 0.0085 ± 0.018 | -0.0095 ± 0.0035 | -0.02 ± 0.0042 | -0.006 ± 0.018 | 0.007 ± 0.025 | 0.0055 ± 0.012 | -0.007 ± 0.0028
BF4T:SRB | -0.002 ± 0.0028 | -0.0025 ± 0.0064 | -0.0055 ± 0.0064 | -0.002 ± 0.0042 | -0.005 ± 0.013 | -0.0005 ± 0.016 | 0.0015 ± 0.0035 | -0.0035 ± 0.00071 | -0.001 ± 0.0071 | -0.256 ± 0.0014 | -0.007 ± 0.0057 | -0.015 | -0.005 ± 0.0099 | -0.006 ± 0.0085 | -0.011 ± 0.011 | -0.0135 ± 0.016 | -0.002 ± 0.0028 | 0.003 ± 0.0028 | -0.003 ± 0.0014
BF4T:tPA | -0.006 ± 0.024 | 0.025 ± 0.047 | 0.037 ± 0.04 | -0.017 ± 0.023 | -0.027 ± 0.021 | 0.003 ± 0.014 | 0.0135 ± 0.00071 | 0.0135 ± 0.0021 | -0.0185 ± 0.005 | -0.18 ± 0.097 | -0.036 ± 0.017 | -0.015 ± 0.016 | 0.0145 ± 0.057 | 0.0015 ± 0.005 | -0.0065 ± 0.018 | 0.036 ± 0.047 | -0.019 ± 0.0085 | -0.023 ± 0.0014 | -0.0145 ± 0.013
BF4T:uPA | -0.0035 ± 0.033 | 0.0105 ± 0.037 | 0.019 ± 0.033 | -0.0085 ± 0.012 | -0.016 ± 0.016 | -0.0155 ± 0.00071 | -0.0115 ± 0.0078 | -0.0325 ± 0.0078 | 0.015 ± 0.011 | -0.235 ± 0.043 | -0.0085 ± 0.00071 | -0.02 ± 0.0085 | 0.0085 ± 0.03 | -0.0075 ± 0.013 | -0.016 ± 0.024 | -0.0165 ± 0.0035 | -0.0055 ± 0.026 | 0.0015 ± 0.012 | -0.0145 ± 0.005
BT:B cell Proliferation | 0.0125 ± 0.044 | -0.041 ± 0.0085 | -0.002 ± 0.051 | 0.0105 ± 0.025 | 0.0195 ± 0.016 | 0.039 ± 0.023 | -0.002 ± 0.025 | 0.017 ± 0.0099 | 0.0135 ± 0.04 | 0.0395 ± 0.03 | -0.002 ± 0.0071 | 0.0275 ± 0.0092 | 0.065 ± 0.016 | -0.011 ± 0.054 | -0.008 ± 0.011 | -0.0135 ± 0.025 | -0.022 ± 0.023 | -0.019 ± 0.047 | -0.001 ± 0.05
BT:PBMC Cytotoxicity | -0.0215 ± 0.056 | -0.013 ± 0.027 | -0.005 ± 0.0085 | -0.0095 ± 0.005 | -0.0065 ± 0.005 | -0.0045 ± 0.036 | -0.0055 ± 0.023 | 0.005 ± 0.013 | 0.0195 ± 0.023 | 0.045 ± 0.045 | 0.02 ± 0.0028 | -0.0165 ± 0.0021 | 0.056 ± 0.016 | 0.042 ± 0.014 | -0.0045 ± 0.022 | 0.0285 ± 0.0035 | 0.032 ± 0.014 | 0.0045 ± 0.0092 | 0.0045 ± 0.021
BT:Secreted IgG | 0.036 ± 0.028 | 0.03 ± 0.0057 | -0.004 ± 0.057 | 0.0485 ± 0.03 | 0.039 ± 0.034 | -0.0175 ± 0.04 | -0.007 ± 0.064 | 0.016 ± 0.09 | -0.014 ± 0.033 | -0.018 ± 0.02 | -0.0115 ± 0.0035 | -0.0005 ± 0.03 | -0.059 ± 0.013 | 0.0195 ± 0.023 | -0.0165 ± 0.043 | -0.0315 ± 0.081 | 0.015 ± 0.017 | -0.002 ± 0.0071 | -0.025 ± 0.018
BT:sIL-2 | 0.046 ± 0.016 | -0.0205 ± 0.064 | -0.007 ± 0.1 | 0.034 ± 0.079 | 0.022 ± 0.0085 | -0.0465 ± 0.053 | -0.0405 ± 0.042 | 0.071 ± 0.072 | 0.008 ± 0.092 | 0.118 ± 0.013 | 0.0175 ± 0.042 | 0.007 ± 0.016 | 0.0175 ± 0.035 | 0.0065 ± 0.052 | -0.0005 ± 0.1 | -0.0005 ± 0.098 | 0.017 ± 0.018 | -0.042 ± 0.037 | 0.027 ± 0.12
BT:sIL-6 | 0.021 ± 0.023 | -0.0015 ± 0.0035 | 0.035 ± 0.024 | 0.041 ± 0.025 | 0.02 ± 0.05 | -0.1305 ± 0.00071 | 0.0275 ± 0.043 | -0.0215 ± 0.005 | -0.029 ± 0.071 | 0.077 ± 0.058 | 0.019 ± 0.044 | 0.019 ± 0.025 | 0.0035 ± 0.047 | 0.0615 ± 0.0035 | 0.028 ± 0.057 | 0.039 ± 0.045 | 0.0555 ± 0.035 | 0.007 ± 0.018 | -0.033 ± 0.038
BT:sIL-17A | 0.0325 ± 0.0064 | -0.051 ± 0.12 | -0.065 ± 0.15 | 0.0455 ± 0.064 | -0.035 ± 0.038 | -0.184 ± 0.0071 | 0.135 ± 0.0092 | -0.0585 ± 0.032 | -0.0525 ± 0.0092 | -0.0075 ± 0.17 | 0.027 ± 0.05 | 0.052 ± 0.096 | -0.0105 ± 0.21 | -0.004 ± 0.018 | -0.0905 ± 0.12 | -0.089 ± 0.2 | -0.0765 ± 0.18 | 0.001 ± 0.11 | -0.0075 ± 0.064
BT:sIL-17F | 0.0335 ± 0.0035 | 0.0335 ± 0.023 | -0.0045 ± 0.052 | -0.033 ± 0.0071 | -0.0475 ± 0.0064 | -0.089 ± 0.017 | 0.0485 ± 0.028 | -0.0345 ± 0.093 | 0.019 ± 0.016 | 0.0345 ± 0.13 | -0.0935 ± 0.005 | -0.092 ± 0.04 | -0.063 ± 0.045 | 0.0035 ± 0.015 | 0.041 ± 0.12 | 0.0815 ± 0.061 | 0.014 ± 0.12 | -0.0295 ± 0.052 | -0.024 ± 0.068
BT:sTNF-alpha | 0.0405 ± 0.06 | 0.058 ± 0.096 | -0.0255 ± 0.11 | 0.0435 ± 0.1 | 0.057 ± 0.023 | -0.0375 ± 0.076 | 0.0545 ± 0.076 | 0.0925 ± 0.093 | 0.0625 ± 0.047 | 0.018 ± 0.0099 | -0.0005 ± 0.076 | 0.026 ± 0.083 | 0.085 ± 0.078 | 0.009 ± 0.031 | -0.0095 ± 0.14 | -0.0015 ± 0.16 | 0.0125 ± 0.042 | -0.105 ± 0.055 | 0.0165 ± 0.12
LPS:CCL2/MCP-1 | -0.011 ± 0.014 | -0.008 ± 0.031 | 0.019 ± 0.068 | -0.004 ± 0.031 | -0.024 ± 0.014 | -0.001 ± 0.0071 | -0.01 ± 0.0057 | 0.005 ± 0.024 | -0.0005 ± 0.012 | -0.0015 ± 0.0064 | -0.0045 ± 0.016 | 0.022 ± 0.025 | 0.0725 ± 0.0035 | -0.0025 ± 0.005 | -0.009 ± 0.0014 | 0.0015 ± 0.032 | -0.011 ± 0.013 | -0.013 ± 0.0071 | -0.0065 ± 0.00071
